Experimental data: patent publication US5962502A, “Polyamidic acid derivatives with antigastrin activity, a method for their preparation, and their pharmaceutical use” (priority 1993, dated 1999)
Several values for one entry are separate records, joined by “and”; a condition that tells them apart may be missing. Identical values can stand only once.

Experiments:
[1] = system: acid secretion induced by pentagastrin; experiment: Acid secretion induced by pentagastrin in the anaesthetized rat; assay type: in vivo; conditions: for ED50: iv, 1 h, I.V. bolus, pentagastrin 30 mcg/kg/h, read-out: Activity (ID50), inhibition of the acid secretion induced by pentagastrin
Procedure: The activity of the compounds of the invention against gastric secretion performed by means of a mechanism with an antigastrin effect, was examined in vivo in anaesthetized rats with the use of male animals weighing about 200 g. Gastric secretion was stimulated with pentagastrin and Lai's method [Gut 5, (1964), 327-341 ] was used, with slight modification.
After tracheotomy, the oesophagus and duodenum were cannulated. A tepid solution (37° C.) of 0.25 mM NaOH was perfused and was passed through the stomach by means of a peristaltic pump at a constant flow-rate of 1 ml/minute. After stabilization for 20 minutes, the stimulant, dissolved in a physiological solution, was perfused for 120 minutes at a dose of 30 mcg/kg/h, in a volume of 0.95 ml/hour. After perfusion for 60 minutes (the basal stimulation), the product under test was administered intravenously (I.V.) as a bolus and perfusion of the stimulant was continued for a further 60 minutes. The acid secretion was recorded continuously as a function of time.
The activity of the product was evaluated as the percentage reduction of secreted acidity after the administration of the product, in comparison with the basal acidity measured during the first 60 minutes of collection in the presence of pentagastrin alone.
The antagonistic compounds tested were administered in various doses so that an ID50, that is, the dose (in mg/kg I.V.) which could inhibit the effect of pentagastrin by 50%, could be calculated.

[2] = target: T1, gastrin receptors or type-B cholecystokinin (CCK-B) receptors (Oryctolagus cuniculus, UniProt P46627); experiment: Inhibition of the gastrin-induced increase of cytosolic calcium in rabbit gastric mucous-membrane cells (Fura 2); assay type: cell-based; conditions: for Ratio IC50 Binding cortex / IC50 (gastric mucous cells): binding values taken from Table 3; for CCK-B-antagonistic activity IC50 (II): data taken from Table 4 (rabbit gastric mucous cells), reprinted in Table 6; for IC50, inhibition of the increase of cytosolic calcium: rabbit gastric mucous cells enriched in parietal cells, gastrin 5×10^-8; for IC50 order of magnitude, peripheral antigastrin activity: rabbit gastric mucous cells
T1 construct: Rabbit gastric mucous-membrane cells were prepared by conventional techniques; endogenous in cells; host or cells: freshly isolated rabbit gastric mucosal cells, enriched by elutriation to about 70% parietal cells
T1 sequence (P46627 1-452): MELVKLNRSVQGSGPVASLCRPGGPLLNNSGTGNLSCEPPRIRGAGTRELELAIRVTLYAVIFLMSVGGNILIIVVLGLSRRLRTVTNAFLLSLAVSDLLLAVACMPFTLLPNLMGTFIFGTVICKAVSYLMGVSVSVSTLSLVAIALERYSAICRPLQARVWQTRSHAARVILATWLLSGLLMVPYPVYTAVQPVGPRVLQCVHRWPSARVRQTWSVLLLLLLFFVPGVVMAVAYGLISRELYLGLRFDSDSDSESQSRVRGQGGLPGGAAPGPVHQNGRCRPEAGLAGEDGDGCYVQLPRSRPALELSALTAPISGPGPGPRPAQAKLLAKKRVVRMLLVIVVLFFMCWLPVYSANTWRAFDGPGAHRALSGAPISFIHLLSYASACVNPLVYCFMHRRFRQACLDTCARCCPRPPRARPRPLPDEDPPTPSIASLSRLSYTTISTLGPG
Description: The parietal cells of the gastric mucous membrane are responsible for the secretion of HCl. They have specific membrane receptors which can be activated by gastrin and which have been defined as gastrin receptors or type-B cholecystokinin (CCK-B) receptors. Since it has been observed that the activation of the CCK-B receptors by gastrin leads to an increase in the cytosolic levels of calcium ions, a technique involving the measurement of the increase in intracellular calcium induced by gastrin in the presence and in the absence of the compounds of the invention was used as an index of the antigastrin activity of the compounds. Rabbit gastric mucous-membrane cells were prepared by conventional techniques with the use of collagenase and pronase as digestive enzymes. The cellular preparation obtained by the enzymatic digestion was composed of parietal cells, zymogen cells and mucous-membrane cells. […] The cells were then washed and resuspended in a saline solution buffered with HEPES containing, in mM: […] Each measurement was carried out on cells in suspension (0.8×10^6 /ml) at a thermostatically-controlled temperature of 37° C. and with constant magnetic stirring. The fluorescence was recorded with the use of a spectrofluorometer. The operative wavelengths were 340/380 nm for excitation and 505 nm for emission. […] Biol. Chem. 260 (1985), 3440]. […] The results thus obtained for some compounds of the invention are given in Table 4, which also gives an index derived from the ratio between the peripheral antigastrin activity just described and the displacement activity found in the test on binding to the guinea-pig cortex receptors described above.

CCK-A = target: T2, CCK-A (Cavia porcellus, UniProt Q63931); experiment: Anti-CCK-A activity on guinea-pig gall bladder stimulated in vitro by CCK-8; conditions: for Ratio I/II (CCK-A IC50 / CCK-B IC50): gall bladder IC50 over gastric mucous cells IC50; for IC50: guinea-pig gall bladder in vitro, CCK-8 10 ng/ml, read-out: CCK-A-antagonistic activity IC50 (I)
T2 construct: A longitudinal strip of guinea-pig gall-bladder was put in a bath for isolated organs; from tissue; host or cells: guinea-pig gall bladder longitudinal strip
T2 sequence (Q63931 1-430): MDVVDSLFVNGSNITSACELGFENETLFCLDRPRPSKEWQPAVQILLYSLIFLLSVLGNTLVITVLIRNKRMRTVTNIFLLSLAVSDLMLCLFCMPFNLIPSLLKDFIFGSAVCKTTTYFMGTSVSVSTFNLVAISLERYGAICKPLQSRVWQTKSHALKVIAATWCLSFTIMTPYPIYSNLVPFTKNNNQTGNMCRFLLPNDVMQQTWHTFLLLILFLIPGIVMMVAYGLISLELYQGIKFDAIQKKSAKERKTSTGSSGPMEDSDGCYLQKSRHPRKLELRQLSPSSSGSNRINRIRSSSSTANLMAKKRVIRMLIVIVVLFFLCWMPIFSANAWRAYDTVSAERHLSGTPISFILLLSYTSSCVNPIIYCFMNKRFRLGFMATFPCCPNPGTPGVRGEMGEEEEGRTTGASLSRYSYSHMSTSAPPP
Procedure: The experimental model used was guinea-pig gall bladder stimulated in vitro by CCK-8, with the use of lorglumide as the reference standard. A longitudinal strip of guinea-pig gall-bladder was put in a bath for isolated organs in the presence of Krebs buffer at a temperature of 32° C., with continuous oxygenation with an oxygen-CO2 mixture (95-[…]). The isometric contractions were detected by means of a force transducer and recorded.

central CCK-B receptor = target: T3, central CCK-B receptor (Cavia porcellus, UniProt H0VZC5); experiment: Inhibition of the binding of [3-H][N-methyl-N-leucine]CCK-8 to guinea-pig cortical membranes; conditions: for IC50 / inhibition of the binding of [N-methyl-N-leucine]CCK-8, result in words: guinea-pig cortical membranes; for IC50: 150 minutes at 25° C.
T3 construct: Cerebral cortices of male white guinea-pigs were thus used; from tissue; host or cells: cerebral cortex membranes of male white guinea-pigs
T3 sequence (H0VZC5 1-426): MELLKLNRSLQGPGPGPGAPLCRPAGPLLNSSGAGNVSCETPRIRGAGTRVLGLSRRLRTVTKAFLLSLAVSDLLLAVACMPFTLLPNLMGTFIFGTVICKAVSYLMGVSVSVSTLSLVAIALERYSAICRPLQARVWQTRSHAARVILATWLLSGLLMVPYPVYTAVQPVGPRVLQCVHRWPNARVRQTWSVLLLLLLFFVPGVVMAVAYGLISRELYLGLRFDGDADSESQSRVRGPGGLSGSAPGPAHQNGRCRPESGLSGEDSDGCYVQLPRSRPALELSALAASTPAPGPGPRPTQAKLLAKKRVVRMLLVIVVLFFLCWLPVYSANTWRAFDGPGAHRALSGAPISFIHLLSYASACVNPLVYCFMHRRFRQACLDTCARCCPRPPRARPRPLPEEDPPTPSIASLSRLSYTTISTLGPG
Outline: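 Male guinea-pig cerebral cortex membranes (about 300 mcg protein/ml) incubated with non-sulphated [3-H]-labelled CCK-8 tracer and compound 150 minutes at 25° C. Pellet radioactivity counted by liquid scintillation; nonspecific binding defined with 5.10^-6 M CCK-8.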

CCK-B receptors = conditions: guinea-pig; Knapp et al; cited from earlier work

Row | Compound | ED50 [1] | Ratio IC50 Binding cortex / IC50 (gastric mucous cells) [2] | CCK-B-antagonistic activity IC50 (II) [2] [nM] | IC50, inhibition of the increase of cytosolic calcium [2] [nM] | Ratio I/II (CCK-A IC50 / CCK-B IC50) (CCK-A) | IC50 (CCK-A) [nM] | IC50 (central CCK-B receptor) [nM] | times more active than the corresponding diastereoisomer at the carbon atom (**) (central CCK-B receptor; binding, guinea-pig cortex) [times] | antigastrin activity relative to the diastereoisomer at the carbon atom (**) ([1]; pentagastrin-induced acid secretion) | IC50 order of magnitude, peripheral antigastrin activity [2] | inhibition of the binding of [N-methyl-N-leucine]CCK-8, result in words (central CCK-B receptor) | affinity for the receptors of the cortex (CCK-B) relative to those of the pancreas (CCK-A) (CCK-B receptors)
1 | O=C(CC[C@@H](NC(=O)c1cc(Cl)cc(Cl)c1)C(=O)N1CCC2(CCCC2)CC1)N[C@@H](Cc1ccccc1)C(=O)O [Compound 10] | 28.4 mg/kg and 48.3 µmol/kg | 3.7 | 200 | 200 | 179 | 35800 | 730 | – | – | – | – | –
2 | O=C(O)C[C@@H](Cc1ccccc1)NC(=O)CC[C@@H](NC(=O)c1cc(Cl)cc(Cl)c1)C(=O)N1CCC2(CCCC2)CC1 [Compound 15] | 13.5 mg/kg and 22.4 µmol/kg | 7.3 | 30 | 30 | 160 | 4800 | 220 | 1.5 | – | – | – | –
3 | O=C(CC[C@@H](NC(=O)c1cc(Cl)cc(Cl)c1)C(=O)N1CCC2(CCCC2)CC1)N[C@@H](Cc1c[nH]c2ccccc12)C(=O)O [Compound 20] | 10.9 mg/kg and 17.4 µmol/kg | 7.3 | 30 | 30 | 1397 | 41900 | 220 | – | almost the same antigastrin activity | – | – | –
4 | O=C(CC[C@@H](NC(=O)c1cc(Cl)cc(Cl)c1)C(=O)N1CCC2(CCCC2)CC1)N[C@H](Cc1cccc2ccccc12)C(=O)O [Compound 25] | 7.1 mg/kg and 11.1 µmol/kg | 10.0 | 7 | 7 | 1214 | 8500 | 70 | – | – | nanomolar order of magnitude | potent inhibitors | –
5 | O=C(CC[C@@H](NC(=O)c1cc(Cl)cc(Cl)c1)C(=O)N1CCC2(CCCCC2)CC1)N[C@H](Cc1c[nH]c2ccccc12)C(=O)O [Compound 30] | 15.2 mg/kg and 23.7 µmol/kg | 12.5 | 8 | 8 | 1837 | 14700 | 100 | – | – | nanomolar order of magnitude | potent inhibitors | –
6 | O=C(CC[C@@H](NC(=O)c1cc(Cl)cc(Cl)c1)C(=O)N1CCC2(CCCC2)CC1)Nc1ccccc1C(=O)O [Compound 50] | 12 mg/kg and 21.4 µmol/kg | 15.0 | – | 30 | 160.0 | 4800 | 450 | – | – | – | – | –
7 | non-sulphated [3-H] [N-methyl-N-leucine]CCK-8 | – | – | – | – | – | – | – | – | – | – | – | approximately 4000 times
